Assay results reported in ChEMBL document CHEMBL3864157, “The synthesis and antistaphylococcal activity of dehydroabietic acid derivatives: Modifications at C-12” (2016).
≈ marks a conversion by molar mass, not a printed value.

Tests used:
Type in all cases: functional
Staphylococcus aureus [1] = assay: Antibacterial activity against Staphylococcus aureus Newman
Staphylococcus aureus [2] = assay: Antibacterial activity against erythromycin-resistant Staphylococcus aureus NRS-70
Staphylococcus aureus [3] = assay: Antibacterial activity against aminoglycosides/tetracycline-resistant Staphylococcus aureus NRS-1
Staphylococcus aureus [4] = assay: Antibacterial activity against gentamicin-resistant Staphylococcus aureus NRS-108
Staphylococcus aureus [5] = assay: Antibacterial activity against linezolid-resistant Staphylococcus aureus NRS-271
Staphylococcus aureus [6] = assay: Antibacterial activity against oxacillin/tetracycline-resistant Staphylococcus aureus NRS-100

| MIC (Staphylococcus aureus [1]) [µg/mL] | Compound | MIC (Staphylococcus aureus [2]) [µg/mL] | MIC (Staphylococcus aureus [3]) [µg/mL] | MIC (Staphylococcus aureus [4]) [µg/mL] | MIC (Staphylococcus aureus [5]) [µg/mL] | MIC (Staphylococcus aureus [6]) [µg/mL] |
| --- | --- | --- | --- | --- | --- | --- |
| 12.5 to 25 (≈ 29.4 to 58.7 µM) | CC(C)c1cc2c(cc1C(=NO)C1CCCCC1)[C@@]1(C)CCC[C@@](C)(C(=O)O)[C@@H]1CC2 |  |  |  |  |  |
| > 50 | CCC(=NOC)c1cc2c(cc1C(C)C)CC[C@H]1[C@](C)(C(=O)O)CCC[C@]21C |  |  |  |  |  |
| 5 (≈ 11.5 µM) | CON=C(c1ccccc1)c1cc2c(cc1C(C)C)CC[C@H]1[C@](C)(C(=O)O)CCC[C@]21C |  |  |  |  |  |
| 40 to 50 (≈ 100 to 125 µM) | CCCC(=NOC)c1cc2c(cc1C(C)C)CC[C@H]1[C@](C)(C(=O)O)CCC[C@]21C |  |  |  |  |  |
| > 50 | CC(C)C(=NO)c1cc2c(cc1C(C)C)CC[C@H]1[C@](C)(C(=O)O)CCC[C@]21C |  |  |  |  |  |
| 10 to 12.5 (≈ 23.5 to 29.4 µM) | C=CCON=C(c1cc2c(cc1C(C)C)CC[C@H]1[C@](C)(C(=O)O)CCC[C@]21C)C(C)C |  |  |  |  |  |
| > 50 | C/C(=N\OCc1ccccc1)c1cc2c(cc1C(C)C)CC[C@H]1[C@](C)(C(=O)O)CCC[C@]21C |  |  |  |  |  |
| 6.25 to 12.5 (≈ 14.2 to 28.4 µM) | CON=C(c1cccs1)c1cc2c(cc1C(C)C)CC[C@H]1[C@](C)(C(=O)O)CCC[C@]21C |  |  |  |  |  |
| > 50 | C=CCON=C(CC)c1cc2c(cc1C(C)C)CC[C@H]1[C@](C)(C(=O)O)CCC[C@]21C |  |  |  |  |  |
| > 50 | CC(C)C(=NOCc1ccccc1)c1cc2c(cc1C(C)C)CC[C@H]1[C@](C)(C(=O)O)CCC[C@]21C |  |  |  |  |  |
| 1.56 to 3.13 (≈ 3.36 to 6.75 µM) | C#CCON=C(c1cccs1)c1cc2c(cc1C(C)C)CC[C@H]1[C@](C)(C(=O)O)CCC[C@]21C |  |  |  |  |  |
| > 50 | CCC(=NO)c1cc2c(cc1C(C)C)CC[C@H]1[C@](C)(C(=O)O)CCC[C@]21C |  |  |  |  |  |
| > 50 | CON=C(c1cc2c(cc1C(C)C)CC[C@H]1[C@](C)(C(=O)O)CCC[C@]21C)C1CCCCC1 |  |  |  |  |  |

Second part, the molecule before the results:

| Compound | MIC (Staphylococcus aureus [1]) [µg/mL] | MIC (Staphylococcus aureus [2]) [µg/mL] | MIC (Staphylococcus aureus [3]) [µg/mL] | MIC (Staphylococcus aureus [4]) [µg/mL] | MIC (Staphylococcus aureus [5]) [µg/mL] | MIC (Staphylococcus aureus [6]) [µg/mL] |
| --- | --- | --- | --- | --- | --- | --- |
| CC(C)c1cc2c(cc1C(=NO)c1ccc(C(F)(F)F)cc1)[C@@]1(C)CCC[C@@](C)(C(=O)O)[C@@H]1CC2 | > 50 |  |  |  |  |  |
| C=CCON=C(c1cccs1)c1cc2c(cc1C(C)C)CC[C@H]1[C@](C)(C(=O)O)CCC[C@]21C | 25 to 50 (≈ 53.7 to 107 µM) |  |  |  |  |  |
| C#CCON=C(c1cccc(C(F)(F)F)c1)c1cc2c(cc1C(C)C)CC[C@H]1[C@](C)(C(=O)O)CCC[C@]21C | 1.56 to 3.13 (≈ 2.97 to 5.95 µM) | > 25 | > 25 | > 25 | > 25 | > 25 |
| C=CCON=C(c1cc2c(cc1C(C)C)CC[C@H]1[C@](C)(C(=O)O)CCC[C@]21C)c1ccccc1C(F)(F)F | 0.78 to 1.56 (≈ 1.48 to 2.96 µM) | 1.56 to 3.13 (≈ 2.96 to 5.93 µM) | 12.5 to 25 (≈ 23.7 to 47.4 µM) | 6.25 to 12.5 (≈ 11.8 to 23.7 µM) | > 50 | 6.25 to 12.5 (≈ 11.8 to 23.7 µM) |
| CCC(=NOCc1ccccc1)c1cc2c(cc1C(C)C)CC[C@H]1[C@](C)(C(=O)O)CCC[C@]21C | > 50 |  |  |  |  |  |
| CON=C(c1ccc(Cl)cc1Cl)c1cc2c(cc1C(C)C)CC[C@H]1[C@](C)(C(=O)O)CCC[C@]21C | 1.56 to 3.13 (≈ 3.1 to 6.23 µM) | 1.56 to 3.13 (≈ 3.1 to 6.23 µM) | > 25 | > 25 | > 25 | > 25 |
| CC(C)c1cc2c(cc1C(=NO)c1ccccc1C(F)(F)F)[C@@]1(C)CCC[C@@](C)(C(=O)O)[C@@H]1CC2 | 1.56 to 3.13 (≈ 3.2 to 6.42 µM) | 1.56 to 3.13 (≈ 3.2 to 6.42 µM) | 1.56 to 3.13 (≈ 3.2 to 6.42 µM) | 1.56 to 3.13 (≈ 3.2 to 6.42 µM) | 1.56 to 3.13 (≈ 3.2 to 6.42 µM) | 1.56 to 3.13 (≈ 3.2 to 6.42 µM) |
| C=CCON=C(c1ccccc1)c1cc2c(cc1C(C)C)CC[C@H]1[C@](C)(C(=O)O)CCC[C@]21C | 1.25 to 2.5 (≈ 2.72 to 5.44 µM) | 1.25 to 1.56 (≈ 2.72 to 3.39 µM) | 2.5 to 3.13 (≈ 5.44 to 6.81 µM) | 1.56 to 2.5 (≈ 3.39 to 5.44 µM) | 1.56 to 2.5 (≈ 3.39 to 5.44 µM) | 1.56 to 2.5 (≈ 3.39 to 5.44 µM) |
| C=CCON=C(c1cccc(C(F)(F)F)c1)c1cc2c(cc1C(C)C)CC[C@H]1[C@](C)(C(=O)O)CCC[C@]21C | > 50 |  |  |  |  |  |
| CCCC(=NOCc1ccccc1)c1cc2c(cc1C(C)C)CC[C@H]1[C@](C)(C(=O)O)CCC[C@]21C | > 50 |  |  |  |  |  |
| CC(C)c1ccc2c(c1)CC[C@H]1[C@](C)(C(=O)O)CCC[C@]21C [DEHYDROABIETIC ACID] | 12.5 to 20 (≈ 41.6 to 66.6 µM) | 12.5 to 25 (≈ 41.6 to 83.2 µM) | 12.5 to 25 (≈ 41.6 to 83.2 µM) | 12.5 to 25 (≈ 41.6 to 83.2 µM) | 12.5 to 25 (≈ 41.6 to 83.2 µM) | 12.5 to 25 (≈ 41.6 to 83.2 µM) |
| CN(C)[C@@H]1C(O)=C(C(N)=O)C(=O)[C@@]2(O)C(O)=C3C(=O)c4c(O)cccc4[C@@](C)(O)[C@H]3C[C@@H]12 [TETRACYCLINE] | < 0.2 | < 0.2 | > 25 | < 0.2 | < 0.2 | < 0.2 |
| CN[C@H](CC(C)C)C(=O)N[C@H]1C(=O)N[C@@H](CC(N)=O)C(=O)N[C@H]2C(=O)N[C@H]3C(=O)N[C@H](C(=O)N[C@H](C(=O)O)c4cc(O)cc(O)c4-c4cc3ccc4O)[C@H](O)c3ccc(c(Cl)c3)Oc3cc2cc(c3O[C@@H]2O[C@H](CO)[C@@H](O)[C@H](O)[C@H]2O[C@H]2C[C@](C)(N)[C@H](O)[C@H](C)O2)Oc2ccc(cc2Cl)[C@H]1O [VANCOMYCIN] | 0.78 to 1.56 (≈ 0.538 to 1.08 µM) | 0.2 to 0.39 (≈ 0.138 to 0.269 µM) | 1.56 to 3.13 (≈ 1.08 to 2.16 µM) | 0.39 to 0.78 (≈ 0.269 to 0.538 µM) | 0.39 to 0.78 (≈ 0.269 to 0.538 µM) | 0.39 to 0.78 (≈ 0.269 to 0.538 µM) |
